Source: ChEMBL document CHEMBL1139828, “Synthesis of 2,3-diaryl-1,3-thiazolidine-4-one derivatives as selective cyclooxygenase (COX-2) inhibitors” (Bioorg Med Chem Lett, 2007)

Assays:
[1] = molecular target: Prostaglandin G/H synthase 1 (Homo sapiens, UniProt P23219)
[2] = molecular target: T1, Prostaglandin G/H synthase 2 (Homo sapiens, UniProt P35354)
T1 sequence (P35354 whole entry): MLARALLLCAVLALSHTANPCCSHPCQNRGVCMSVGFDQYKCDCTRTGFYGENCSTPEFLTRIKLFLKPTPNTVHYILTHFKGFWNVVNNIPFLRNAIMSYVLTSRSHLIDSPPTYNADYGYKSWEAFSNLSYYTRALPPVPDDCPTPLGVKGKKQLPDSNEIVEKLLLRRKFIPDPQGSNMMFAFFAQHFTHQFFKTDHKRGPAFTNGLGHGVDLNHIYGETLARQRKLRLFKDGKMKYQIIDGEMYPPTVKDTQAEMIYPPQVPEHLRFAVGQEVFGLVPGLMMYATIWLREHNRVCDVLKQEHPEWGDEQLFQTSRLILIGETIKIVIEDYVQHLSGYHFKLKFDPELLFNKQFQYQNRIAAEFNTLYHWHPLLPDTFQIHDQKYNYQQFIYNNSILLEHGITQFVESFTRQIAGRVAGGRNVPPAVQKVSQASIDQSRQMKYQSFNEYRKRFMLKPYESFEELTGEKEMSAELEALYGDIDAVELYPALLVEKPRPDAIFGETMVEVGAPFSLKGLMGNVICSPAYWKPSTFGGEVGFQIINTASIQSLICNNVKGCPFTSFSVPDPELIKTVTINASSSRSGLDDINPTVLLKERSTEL

[3] = species: Homo sapiens; assay: Selectivity index, ratio of IC50 for […]

Sequence of Prostaglandin G/H synthase 1 (P23219 whole entry): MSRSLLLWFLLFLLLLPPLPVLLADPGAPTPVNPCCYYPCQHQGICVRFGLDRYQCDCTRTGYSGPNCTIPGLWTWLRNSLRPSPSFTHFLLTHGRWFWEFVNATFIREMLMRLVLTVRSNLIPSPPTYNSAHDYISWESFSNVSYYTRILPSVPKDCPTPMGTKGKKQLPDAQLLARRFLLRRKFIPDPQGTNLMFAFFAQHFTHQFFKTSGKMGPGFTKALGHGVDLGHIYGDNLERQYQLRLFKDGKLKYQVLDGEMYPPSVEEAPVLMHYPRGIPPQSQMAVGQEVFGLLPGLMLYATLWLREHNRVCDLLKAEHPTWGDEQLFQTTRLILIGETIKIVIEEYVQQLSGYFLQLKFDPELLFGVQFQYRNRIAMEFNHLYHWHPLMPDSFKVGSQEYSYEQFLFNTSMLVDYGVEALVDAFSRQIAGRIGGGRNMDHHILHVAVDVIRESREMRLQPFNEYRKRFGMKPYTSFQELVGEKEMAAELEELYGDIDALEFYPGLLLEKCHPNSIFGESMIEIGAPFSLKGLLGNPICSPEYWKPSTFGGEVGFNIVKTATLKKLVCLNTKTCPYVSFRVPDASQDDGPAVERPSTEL

Row | Compound | IC50 [1] [nM] | IC50 [2] [nM] | Ratio IC50 [3]
1 | CS(=O)(=O)c1ccc(C2SCC(=O)N2c2ccc(F)cc2)cc1 (configuration not stated) | > 100000 | 120 | > 833
2 | Cc1ccc(N2C(=O)CSC2c2ccc(S(C)(=O)=O)cc2)cc1 (configuration not stated) | 53900 | 150 | 359
3 | COc1ccc(N2C(=O)CSC2c2ccc(S(C)(=O)=O)cc2)cc1 (configuration not stated) | > 100000 | 160 | > 625
4 | CS(=O)(=O)c1ccc(C2SCC(=O)N2c2ccccc2)cc1 (configuration not stated) | 96100 | 200 | 480
